PubChem BioAssay AID2060910 (Molecular Pharmacology Branch, DTP, NCI, 2025)

System: 242566-281-R-J2-PDC complex spheroid viability
Assay: Anticancer human tumor 242566-281-R-J2-PDC patient-derived pancreatic carcinoma cell line growth inhibition [RAS]
Details: for viability, T/C: stronger effect = lower value
Source text: RAS pathway inhibitors in Combinations in Complex Spheroids
A high-throughput screen of multi-cell type tumor spheroids was designed to identify active combinations of RAS pathway inhibitors and targeted small molecules. Complex spheroids include a stromal component modeled by human endothelial cells (HUVEC) and fibroblasts modeled by human mesenchymal stem cells (MSCs). The concentration ranges selected for each drug and investigational agent were based upon clinically achievable concentrations if the clinical Cmax of the agent was known.
Compounds. The drugs and investigational agents: abemaciclib (NSC768073), cobimetinib (NSC768068), divarasib (GDC6063, NSC841802), docetaxel (NSC628503), GDC-1971 (RLY-1971, NSC841576), gemcitabine (NSC613327), inavolisib (NSC800729), ipatasertib (NSC767898), KB-0742 (NSC834161), MRTX-1133 (NSC836407), osimertinib (NSC779217), RMC-4630 (NSC839698), RMC-6236 (NSC851965), RMC-6291 (NSC852671), Ro-3306 (NSC812927), sapanisertib (NSC764658), SN-38 (NSC673596), staurosporine (NSC755774), SY5609 (NSC837396), and tovorafenib (DAY101, NSC766906), were obtained from the National Cancer Institute (NCI) Developmental Therapeutics Program Chemical Repository. The FDA-approved anticancer drug set is available from the NCI Developmental Therapeutics Program. […] The stock solutions were prepared in dimethyl sulfoxide (DMSO, Sigma-Aldrich, St. Louis, MO, cat. D2650) at 800-fold the tested concentration and stored at -70 degrees C prior to their use. All drugs and investigational agents were tested over a range starting from a high concentration at or near the clinical Cmax and decreasing in half-log increments. If the clinical Cmax for an agent had not been determined, the highest concentration tested was 10 microM.
Cell Culture. All cells were maintained in an incubator at 37 degrees C and 5% CO2 with 95% humidity. The PDC lines were cultured according to standard operating procedures established by the NCI PDMR. All PDCs were thawed and cultured in Matrigel-coated flasks prepared with a working solution of 1X Ham's F-12 nutrient mix, without supplementation (Invitrogen, Waltham, MA, cat. 11765054), 100 U/mL penicillin-streptomycin (Invitrogen, cat. 15140122), and 2.5% Matrigel (Corning Inc., Corning, NY, cat. 354248) for the first three passages. The 362531-283-R-J2-PDC and 782815-120-R-J1-PDC lines were cultured in 6C/Colon 1B media, which includes advanced DMEM/F-12 (Thermo Fisher Scientific, cat. 12634028), 10 mM HEPES (Thermo Fisher Scientific, cat. 15630080), 1X GlutaMAX supplement (Thermo Fisher Scientific, cat. 35050061), 0.1 mg/mL primocin (InvivoGen, San Diego, CA, cat. ant-pm-2), 10% defined fetal bovine serum, heat inactivated (HyClone Laboratories Inc., Logan, UT, cat. SH30070.03HI), 50% L-WRN conditioned media (ATCC, cat. CRL-3276), 1.25 mM N-Acetyl-L-cysteine (Sigma-Aldrich, cat. A9165), 10 mM nicotinamide (Sigma-Aldrich, cat. N0636), 1X B-27 supplement (Thermo Fisher Scientific, cat. 17504044), 1X N-2 supplement (Thermo Fisher Scientific, cat. 17502048), 50 ng/mL human EGF (Thermo Fisher Scientific, cat. PHG0311), and 10 microM Y-27632 dihydrochloride (Tocris Bioscience, cat. 1254). The K12877-001-R-J1-PDC line was cultured in 6I media, which includes all 6C/Colon 1B media plus 10 ng/mL human FGF-10 (PeproTech, cat. 100-26), 1 ng/mL human FGF-2 (PeproTech, cat. 100-18B), 1 µM prostaglandin E2 (Tocris Bioscience, cat. 2296), […] hydrocortisone (Sigma-Aldrich, cat. H4001), and […] bovine insulin (Sigma-Aldrich, cat. I6634). The K86415-001-R-J1-PDC line was cultured in 6D media, which includes all 6C/Colon 1B media components minus the L-WRN conditioned media. The 485176-168-R4-J1-PDC was cultured in PANC media, which includes all 6C/Colon 1B media plus 100 ng/mL human FGF-10 (PeproTech, cat. 100-26), 500 nM SB-431542 (Selleckchem, cat. S1067), and 10 nM gastrin (Tocris Bioscience, cat. 3006). […]

[1] = curve of first compound, second compound 0.0316 µM
[2] = curve of first compound, second compound 0.1 µM
[3] = curve of first compound, second compound 0.316 µM
[4] = curve of first compound, second compound 1 µM
[5] = second compound 0.0316 µM, first compound 0.00316 µM
[6] = second compound 0.0316 µM, first compound 0.01 µM
[7] = second compound 0.0316 µM, first compound 0.0316 µM
[8] = second compound 0.0316 µM, first compound 0.1 µM
[9] = second compound 0.0316 µM, first compound 0.316 µM
[10] = second compound 0.0316 µM, first compound 1 µM
[11] = second compound 0.1 µM, first compound 0.00316 µM
[12] = second compound 0.1 µM, first compound 0.01 µM
[13] = second compound 0.1 µM, first compound 0.0316 µM
[14] = second compound 0.1 µM, first compound 0.1 µM
[15] = second compound 0.1 µM, first compound 0.316 µM
[16] = second compound 0.1 µM, first compound 1 µM
[17] = second compound 0.316 µM, first compound 0.00316 µM
[18] = second compound 0.316 µM, first compound 0.01 µM
[19] = second compound 0.316 µM, first compound 0.0316 µM
[20] = second compound 0.316 µM, first compound 0.1 µM
[21] = second compound 0.316 µM, first compound 0.316 µM
[22] = second compound 0.316 µM, first compound 1 µM
[23] = second compound 1 µM, first compound 0.00316 µM
[24] = second compound 1 µM, first compound 0.01 µM
[25] = second compound 1 µM, first compound 0.0316 µM
[26] = second compound 1 µM, first compound 0.1 µM
[27] = second compound 1 µM, first compound 0.316 µM
[28] = second compound 1 µM, first compound 1 µM
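Note: spheroids exposed to compound for 7 days before readout.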
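Throughout, for viability, T/C: 100% = DMSO vehicle control wells.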

In the case of `O=C(c1ccc(F)c(F)c1Nc1ccc(I)cc1F)N1CC(O)([C@@H]2CCCCN2)C1` + C#Cc1c(F)ccc2cc(O)cc(-c3ncc4c(N5CC6CCC(C5)N6)nc(OCC56CCCN5CC(F)C6)nc4c3F)c12, the IC50 [1] is reported as 83.3 nM, the IC50 [2] is reported as 56 nM and the IC50 [3] is reported as 25.2 nM. It also gave an IC50 [4] of 8.45 nM, an IC50 (curve of first compound, second compound 3.16 µM) of 4.18 nM and an IC50 (curve of first compound, second compound 10 µM) of under 3.16 nM. For the same compound, the viability, T/C [5] was 89.3%, the viability, T/C [6] was 90.4% and the viability, T/C [7] was 69.1%. It also gave a viability, T/C [8] of 47.9%, a viability, T/C [9] of 38.6% and a viability, T/C [10] of 44.2%. The viability, T/C [11] was 76.1%, the viability, T/C [12] was 73.6% and the viability, T/C [13] was 57.7%. For the same compound, the viability, T/C [14] was 42%, the viability, T/C [15] was 40.9% and the viability, T/C [16] was 38.5%. For the same compound, the viability, T/C [17] was 73%, the viability, T/C [18] was 59.7% and the viability, T/C [19] was 49.9%. For the same compound, the viability, T/C [20] was 37.3%, the viability, T/C [21] was 32.2% and the viability, T/C [22] was 39.9%. The viability, T/C [23] was 60.1%, the viability, T/C [24] was 49.5% and the viability, T/C [25] was 44.8%. It also gave a viability, T/C [26] of 30.4%, a viability, T/C [27] of 35.1% and a viability, T/C [28] of 38.6%. It also gave a viability, T/C (second compound 3.16 µM, first compound 0.00316 µM) of 50.8%, a viability, T/C (second compound 3.16 µM, first compound 0.01 µM) of 48.6% and a viability, T/C (second compound 3.16 µM, first compound 0.0316 µM) of 34%. It also gave a viability, T/C (second compound 3.16 µM, first compound 0.1 µM) of 29.4%, a viability, T/C (second compound 3.16 µM, first compound 0.316 µM) of 34.9% and a viability, T/C (second compound 3.16 µM, first compound 1 µM) of 38.2%. For the same compound, the viability, T/C (second compound 10 µM, first compound 0.00316 µM) was 52.6%, the viability, T/C (second compound 10 µM, first compound 0.01 µM) was 41.3% and the viability, T/C (second compound 10 µM, first compound 0.0316 µM) was 34.1%. The viability, T/C (second compound 10 µM, first compound 0.1 µM) was 37%, the viability, T/C (second compound 10 µM, first compound 0.316 µM) was 36.8% and the viability, T/C (second compound 10 µM, first compound 1 µM) was 37.5%.
For `CCN1CCN(Cc2ccc(Nc3ncc(F)c(-c4cc(F)c5nc(C)n(C(C)C)c5c4)n3)nc2)CC1`, the viability, T/C (compound 0.00316 µM) was 102% [middle of 4 runs], the viability, T/C (compound 0.0316 µM) was 102% [middle of 4 runs] and the viability, T/C (compound 0.1 µM) was 99.1% [middle of 4 runs]. For the same compound, the IC50 (curve of compound) was over 1000 nM.
`O=C(c1ccc(F)c(F)c1Nc1ccc(I)cc1F)N1CC(O)([C@@H]2CCCCN2)C1` + C=CC(=O)N1CCN(c2nc(OCC3CCCN3C)nc3c(F)c(-c4nc(N)cc(C)c4C(F)(F)F)c(Cl)cc23)C(C)C1 gave an IC50 (curve of first compound, second compound 0.00316 µM) of 260 nM, an IC50 (curve of first compound, second compound 0.01 µM) of 677 nM and an IC50 [1] of 436 nM. The IC50 [2] was 593 nM, the IC50 [3] was over 1000 nM and the IC50 [4] was 281 nM. For the same compound, the viability, T/C (second compound 0.00316 µM, first compound 0.00316 µM) was 91.4%, the viability, T/C (second compound 0.00316 µM, first compound 0.01 µM) was 116% and the viability, T/C (second compound 0.00316 µM, first compound 0.0316 µM) was 92.6%. The viability, T/C (second compound 0.00316 µM, first compound 0.1 µM) was 64.8%, the viability, T/C (second compound 0.00316 µM, first compound 0.316 µM) was 48% and the viability, T/C (second compound 0.00316 µM, first compound 1 µM) was 43.9%. The viability, T/C (second compound 0.01 µM, first compound 0.00316 µM) was 92.5%, the viability, T/C (second compound 0.01 µM, first compound 0.01 µM) was 116% and the viability, T/C (second compound 0.01 µM, first compound 0.0316 µM) was 79.7%. The viability, T/C (second compound 0.01 µM, first compound 0.1 µM) was 73.5%, the viability, T/C (second compound 0.01 µM, first compound 0.316 µM) was 53.5% and the viability, T/C (second compound 0.01 µM, first compound 1 µM) was 47.4%. For the same compound, the viability, T/C [5] was 104%, the viability, T/C [6] was 117% and the viability, T/C [7] was 80.2%. For the same compound, the viability, T/C [8] was 74.6%, the viability, T/C [9] was 52.9% and the viability, T/C [10] was 42.1%. For the same compound, the viability, T/C [11] was 103%, the viability, T/C [12] was 104% and the viability, T/C [13] was 94.4%. The viability, T/C [14] was 70.6%, the viability, T/C [15] was 60.6% and the viability, T/C [16] was 43%. It also gave a viability, T/C [17] of 103%, a viability, T/C [18] of 113% and a viability, T/C [19] of 68.3%. The viability, T/C [20] was 70.7%, the viability, T/C [21] was 61% and the viability, T/C [22] was 48.7%. It also gave a viability, T/C [23] of 101%, a viability, T/C [24] of 112% and a viability, T/C [25] of 97.9%. The viability, T/C [26] was 73.4%, the viability, T/C [27] was 45.8% and the viability, T/C [28] was 44.6%.
